# Data reported in patent US9187465B2, “Oxazole tyrosine kinase inhibitors” (Sareum Limited, priority 2007, dated 2015).
# Counter-ions that a name gives are not always drawn.
# Target: T1, human FLT4 (Homo sapiens, UniProt P35916)
# T1 construct: a construct expressing the human FLT4 (789-1207) with an amino terminal GST tag; host or cells: Sf9 insect cells (baculovirus)
# Experiment: FLT4 kinase assay (DELFIA enzyme inhibition)
# Assay type: biochemical
# Details: read-out: FLT4 IC50
# Method: A GST-kinase fusion protein of 70 KDa was produced using sf9 baculovirus expression system, with a construct expressing the human FLT4 (789-1207) with an amino terminal GST tag. The protein was purified by affinity chromatography using glutathione-agarose followed by separation on a gel filtration column.
# FLT4 enzyme activity is determined using a Dissociation Enhanced Lanthanide Fluorescent Immunoassay (DELFIA) with a peptide substrate derived from the MET (Tyr 1253) peptide […] with a core sequence […].
# The amount of phosphorylated peptide produced is detected by means of a phospho-Tyrosine specific Europium-labelled antibody using Time-Resolved Fluorescence at Excitation 360-35 nm and Emission 620-35 nm.
# Assay reactions are set up in a 25 uL final volume on a 96 well plate. […] The reaction is allowed to proceed for 30 minutes at room temperature before stopping with 100 uL Stop solution comprising of 100 mM EDTA, 1×BSA blocker in TBS (Perbio) and 0.05% Surfact-Amps20 (Perbio).
# The stopped reaction is transferred to a black 96-well Neutravidin-coated plate (Perbio) and incubated for 30 minutes to capture the biotinylated peptide substrate. After washing wells 3 times with 200 uL TBS/T buffer, Anti-Phospho-Tyr-100 antibody labelled with Eu—N1 (Perkin Elmer AD0159) is added to all wells for 60 minutes at room temperature. After a repeat washing step, DELFIA Enhancement solution (Perkin Elmer) is added to all wells for 5 minutes and the fluorescence measured on a plate reader Analyst HT (Molecular Devices).
# The % inhibition of the activity is calculated and plotted in order to determine the concentration of test compound required to inhibit 50% of the enzyme activity (IC50).
# T1 sequence (P35916 789-1207): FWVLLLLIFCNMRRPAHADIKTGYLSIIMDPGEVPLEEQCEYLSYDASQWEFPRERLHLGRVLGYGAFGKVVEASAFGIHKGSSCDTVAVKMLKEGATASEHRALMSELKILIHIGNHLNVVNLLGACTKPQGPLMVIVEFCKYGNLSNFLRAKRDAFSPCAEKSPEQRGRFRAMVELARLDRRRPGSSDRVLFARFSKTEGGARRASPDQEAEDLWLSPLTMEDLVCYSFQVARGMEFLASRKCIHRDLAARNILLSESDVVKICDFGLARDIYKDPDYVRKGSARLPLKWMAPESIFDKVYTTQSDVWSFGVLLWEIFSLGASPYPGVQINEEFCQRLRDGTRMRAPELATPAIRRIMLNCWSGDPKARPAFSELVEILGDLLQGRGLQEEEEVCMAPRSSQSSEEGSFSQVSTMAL
row,IC50 [µM],Structure (SMILES)
1,< 10,"COc1ccc(-c2oc(-c3cccs3)nc2C(N)=O)cc1 [Example M-1, 5-(4-methoxyphenyl)-2-(thiophen-2-yl)oxazole-4-carboxamide]"
2,< 10,"COc1ccc(-c2oc(-c3ccsc3)nc2C(N)=O)cc1 [Example M-5, 5-(4-methoxyphenyl)-2-(thiophen-3-yl)oxazole-4-carboxamide]"
3,< 10,"NC(=O)c1nc(-c2c(F)cccc2F)oc1-n1cnc2ccccc21 [Example Q-38, 5-(1H-benzo[d]imidazol-1-yl)-2-(2,6-difluorophenyl)oxazole-4-carboxamide]"
4,< 10,"COc1cc(Nc2oc(-c3c(F)cccc3F)nc2C(N)=O)cc(OC)c1OC [Example Q-40, 2-(2,6-difluorophenyl)-5-(3,4,5-trimethoxyphenylamino)oxazole-4-carboxamide]"
5,< 10,"NC(=O)c1nc(Nc2cn[nH]c2)oc1-c1ccc(N2CCNCC2)cc1 [Example R-19, 2-(1H-pyrazol-4-ylamino)-5-(4-(piperazin-1-yl)phenyl)oxazole-4-carboxamide]"
6,< 10,"NC(=O)c1nc(-c2c(F)cccc2F)oc1Nc1ccc(N)cc1 [Example V-1, 5-(4-aminophenylamino)-2-(2,6-difluorophenyl)oxazole-4-carboxamide]"
7,< 100,"NC(=O)c1nc(-c2c(F)cccc2F)oc1-c1cccc(CN2CCOCC2)c1 [Example X-1, 2-(2,6-Difluorophenyl)-5-(3-(morpholinomethyl)phenyl)oxazole-4-carboxamide]"
8,< 100,"NC(=O)c1nc(-c2c(F)cccc2F)oc1-c1cccc(CN2CCNC(=O)C2)c1 [Example X-2, 2-(2,6-Difluorophenyl)-5-(3-((3-oxopiperazin-1-yl)methyl)phenyl)oxazole-4-carboxamide]"
9,< 100,"NC(=O)c1nc(-c2c(F)cccc2F)oc1-c1cccc(CN2CCNCC2)c1 [Example X-3, 2-(2,6-Difluorophenyl)-5-(3-(piperazin-1-ylmethyl)phenyl)oxazole-4-carboxamide formate salt]"
10,< 100,"NCC1CN(Cc2cccc(-c3oc(-c4c(F)cccc4F)nc3C(N)=O)c2)CCO1 (stereo not shown) [Example X-4, 5-(3-((2-(Aminomethyl)morpholino)methyl)phenyl)-2-(2,6-difluorophenyl)oxazole-4-carboxamide formate salt]"

# More lines, now with the values behind:
row,Structure (SMILES),IC50 [µM]
1,"COc1ccc(-c2nc(-c3ccccc3)[nH]c2C(N)=O)cc1 [Example A-1, 4-(4-methoxyphenyl)-2-phenyl-1H-imidazole-5-carboxamide]",< 100
2,"COc1ccc(-c2nc(-c3ccc(Br)cc3F)[nH]c2C(N)=O)cc1 [Example A-9, 2-(4-bromo-2-fluorophenyl)-4-(4-methoxyphenyl)-1H-imidazole-5-carboxamide]",< 100
3,"COc1ccc(-c2nc(-c3cc(OC)cc(OC)c3)[nH]c2C(N)=O)cc1 [Example A-17, 2-(3,5-dimethoxyphenyl)-4-(4-methoxyphenyl)-1H-imidazole-5-carboxamide]",< 100
4,"NC(=O)c1[nH]c(-c2c(F)cccc2F)nc1-c1ccccc1 [Example A-19, 2-(2,6-difluorophenyl)-4-phenyl-1H-imidazole-5-carboxamide]",< 100
5,"COc1cccc(-c2nc(-c3c(F)cccc3F)[nH]c2C(N)=O)c1 [Example A-20, 2-(2,6-difluorophenyl)-4-(3-methoxyphenyl)-1H-imidazole-5-carboxamide]",< 100
6,"COc1ccc(-c2nc(-c3c(F)cccc3F)oc2C(N)=O)cc1 [Example D-1, 2-(2,6-difluorophenyl)-4-(4-methoxyphenyl)oxazole-5-carboxamide]",< 10
7,"NC(=O)c1nc(-c2c(F)cccc2F)oc1-c1cccs1 [Example E-1, 2-(2,6-difluorophenyl)-5-(thiophen-2-yl)oxazole-4-carboxamide]",< 10
8,"NC(=O)c1nc(-c2c(F)cccc2F)oc1-c1ccccc1 [Example F-1, 2-(2,6-difluorophenyl)-5-phenyloxazole-4-carboxamide]",< 10
9,"NC(=O)c1nc(-c2c(F)cccc2F)oc1-c1ccc(N2CCOCC2)cc1 [Example F-4, 2-(2,6-difluorophenyl)-5-(4-morpholinophenyl)oxazole-4-carboxamide]",< 10
10,"CS(=O)(=O)c1ccc(-c2oc(-c3c(F)cccc3F)nc2C(N)=O)cc1 [Example F-6, 2-(2,6-difluorophenyl)-5-(4-(methylsulfonyl)phenyl)oxazole-4-carboxamide]",< 10
11,"NC(=O)c1nc(-c2c(F)cccc2F)oc1-c1ccc(CN2CCOCC2)cc1 [Example F-20, 2-(2,6-difluorophenyl)-5-(4-(morpholinomethyl)phenyl)oxazole-4-carboxamide]",< 100
12,"NC(=O)c1nc(-c2c(F)cccc2F)oc1-c1ccc(S(N)(=O)=O)cc1 [Example F-21, 5-(4-benzenesulfonamide)-2-(2,6-difluorophenyl)oxazole-4-carboxamide]",< 10
13,"COc1ccc(-c2oc(-c3c(F)cccc3F)nc2C(N)=O)cc1OC [Example F-28, 2-(2,6-difluorophenyl)-5-(3,4-dimethoxyphenyl)oxazole-4-carboxamide]",< 10
14,"NC(=O)c1nc(-c2c(F)cccc2F)oc1-c1ccc2c(c1)OCO2 [Example F-29, 5-(benzo[d][1,3]dioxol-5-yl)-2-(2,6-difluorophenyl)oxazole-4-carboxamide]",< 100
15,"NC(=O)c1nc(-c2c(F)cccc2F)oc1-c1cccc(C(=O)N2CCOCC2)c1 [Example F-30, 2-(2,6-Difluorophenyl)-5-(3-(morpholine-4-carbonyl)phenyl)oxazole-4-carboxamide]",< 10
16,"NC(=O)c1nc(-c2c(F)cccc2F)oc1-c1ccc(CNS(=O)(=O)c2ccc(F)cc2)cc1 [Example K-1, 2-(2,6-difluorophenyl)-5-(4-((4-fluorophenylsulfonamido)methyl)phenyl)oxazole-4-carboxamide]",< 10
17,"NC(=O)c1nc(-c2c(F)cccc2F)oc1-c1ccc(CNS(=O)(=O)c2ccccc2)cc1 [Example K-2, 2-(2,6-difluorophenyl)-5-(4-(phenylsulfonamidomethyl)phenyl)oxazole-4-carboxamide]",< 10
18,"NC(=O)c1nc(-c2c(F)cccc2F)oc1-c1ccc(CNC(=O)c2ccccc2)cc1 [Example L-1, 5-(4-(benzamidomethyl)phenyl)-2-(2,6-difluorophenyl)oxazole-4-carboxamide]",< 10
19,"NC(=O)c1nc(-c2c(F)cccc2F)oc1-c1ccc(CNC(=O)c2cccs2)cc1 [Example L-3, 2-(2,6-difluorophenyl)-5-(4-((thiophene-2-carboxamido)methyl)phenyl)oxazole-4-carboxamide]",< 10

# Target: T2, human Aurora A (Homo sapiens, UniProt O14965)
# T2 construct: Histidine tag (N); host or cells: Sf9 insect cells (baculovirus)
# T2 sequence (O14965 1-403): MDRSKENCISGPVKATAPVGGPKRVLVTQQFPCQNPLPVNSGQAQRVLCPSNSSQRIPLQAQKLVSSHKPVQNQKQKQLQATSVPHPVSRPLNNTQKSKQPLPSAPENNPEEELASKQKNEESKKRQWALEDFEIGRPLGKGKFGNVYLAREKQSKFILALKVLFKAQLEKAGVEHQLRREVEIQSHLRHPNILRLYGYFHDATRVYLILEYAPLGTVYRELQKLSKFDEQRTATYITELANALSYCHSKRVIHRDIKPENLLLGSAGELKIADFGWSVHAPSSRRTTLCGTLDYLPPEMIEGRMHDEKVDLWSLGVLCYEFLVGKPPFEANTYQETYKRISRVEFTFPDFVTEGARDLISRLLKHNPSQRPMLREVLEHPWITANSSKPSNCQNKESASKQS
# Experiment: Aurora A kinase assay (DELFIA enzyme inhibition)
# Assay type: biochemical
# Details: read-out: Aurora A IC50
# Method: The protein was purified by one-step affinity chromatography using nickel-agarose […]
# Assay reactions are set up in a 25 uL final volume on a 96 well plate. […] The reaction is allowed to proceed for 30 minutes at room temperature before stopping with 100 μL Stop solution comprising of 100 mM EDTA, 1×BSA blocker in TBS (Perbio) and 0.05% Surfact-Amps20 (Perbio).
# The stopped reaction is transferred to a black 96-well Neutravidin-coated plate (Perbio) and incubated for 30 minutes to capture the biotinylated peptide substrate. […] After repeating the washing step, the plate is further incubated for one hour with Europium-labelled anti-rabbit antibody (Perkin Elmer AD0105). The wash step is repeated for a final time before DELFIA Enhancement solution (Perkin Elmer) is added to all wells for 5 minutes and the fluorescence measured on a plate reader Analyst HT (Molecular Devices).
row,IC50 [µM],Structure (SMILES)
1,< 10,"NC(=O)c1[nH]c(-c2c(F)cccc2F)nc1-c1ccccc1F [Example A-18, 2-(2,6-difluorophenyl)-4-(2-fluorophenyl)-1H-imidazole-5-carboxamide]"
2,< 100,"NC(=O)c1nc(-c2c(F)cccc2F)oc1-c1cccc2ccccc12 [Example F-35, 2-(2,6-difluorophenyl)-5-(naphthalen-1-yl)oxazole-4-carboxamide]"
3,< 100,"NC(=O)c1nc(-c2c(F)cccc2F)oc1-c1cccc2[nH]ccc12 [Example F-36, 2-(2,6-difluorophenyl)-5-(1H-indol-4-yl)oxazole-4-carboxamide]"
4,< 100,"NC(=O)c1nc(-c2c(F)cccc2F)oc1-c1cccc2cccnc12 [Example F-37, 2-(2,6-difluorophenyl)-5-(quinolin-8-yl)oxazole-4-carboxamide]"
5,< 100,"COc1ccc(-c2oc(-c3ccccc3C(N)=O)nc2C(N)=O)cc1 [Example M-6, 2-(2-carbamoylphenyl)-5-(4-methoxyphenyl)oxazole-4-carboxamide]"
